Data as given in patent US11629171B2, “Beta-hairpin peptidomimetics” (POLYPHOR AG, priority 2017, dated 2023).
Converted amounts (≈) assume the structure as drawn. Where a SMILES comes first, the peptide text is derived from it. Bridges are numbered along the chain shown (N, C = ends). Roman numbers before positions name the chains, in order. [ ]: non-standard residue; d: D form. Tle = CC(C)(C)[C@H](N)C(=O)O; Hiv = CC(C)[C@H](O)C(=O)O; dDab = NCC[C@@H](N)C(=O)O; Orn = NCCC[C@H](N)C(=O)O; Dab = NCC[C@H](N)C(=O)O; Dap = NC[C@H](N)C(=O)O

How the values were obtained:
Assay type in all cases: cell-based
[1] = test system: Klebsiella pneumoniae SSI #3010; conditions: SSI #3010
Outline: (§1)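 Peptides are tested in serial two-fold dilutions against about 10^6 CFU/mL in MH-II broth containing 0.002% P-80 (v/v, final). Plates incubate 18-20 h at 35° C, and the MIC is the lowest peptide level (μg/mL) showing no visible growth.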

[2] = test system: Escherichia coli ATCC 25922; conditions: ATCC 25922
Outline: as §1

[3] = test system: Acinetobacter baumannii DSM 30008; conditions: DSM 30008
Outline: as §1

[4] = test system: Enterobacter cloacae 848840; conditions: 848840
Outline: as §1

[5] = test system: Pseudomonas aeruginosa ATCC 27853; conditions: ATCC 27853
Outline: as §1

[6] = test system: Escherichia coli 926415; conditions: 926415
Outline: as §1

[7] = test system: Klebsiella pneumoniae 968733; conditions: 968733
Outline: as §1

[8] = test system: Acinetobacter baumannii 872842; conditions: 872842
Outline: as §1

[9] = test system: human red blood cells (hRBC); experiment: Hemolysis; conditions: red cells of human, 1 h, 200
Outline: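 Hemoglobin release from PBS-washed hRBC at 20% (v/v), incubated 1 h at 37° C with peptides at 200 μg/mL, is measured at 540 nm. Values are blank corrected and given as a fraction of Triton X-100 lysis × 100%.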

Row | Compound | Klebsiella pneumoniae SSI #3010 MIC [1] [mg/L] | Escherichia coli ATCC 25922 MIC [2] [mg/L] | Acinetobacter baumannii DSM 30008 MIC [3] [mg/L] | MIC [4] [mg/L] | Pseudomonas aeruginosa ATCC 27853 MIC [5] [mg/L] | MIC [6] [mg/L] | MIC [7] [mg/L] | MIC [8] [mg/L] | Hemolysis at 200 μg/mL [9] [%]
1 | CC(=O)N[C@@H](CC(C)C)C(=O)N[C@H]1CSSC[C@@H](C(=O)N[C@@H](CO)C(N)=O)NC(=O)[C@H](C(C)(C)C)NC(=O)[C@H](CCN)NC(=O)[C@H](Cc2c[nH]c3ccccc23)NC(=O)[C@H](CCN)NC(=O)[C@@H](CCN)NC(=O)[C@H](CCC(=O)N[C@@H](CCN)C(=O)N[C@H](C(=O)N[C@@H](CCN)C(=O)N[C@H]2CCNC(=O)[C@H]([C@@H](C)O)NC(=O)[C@H](CCN)NC(=O)[C@H](CCN)NC(=O)[C@H](CC(C)C)NC(=O)[C@@H](CC(C)C)NC(=O)[C@H](CCN)NC2=O)[C@@H](C)O)NC(=O)[C@H](CCN)NC(=O)[C@H](Cc2ccc(O)cc2)NC1=O [Ex. 352] (I: Ac-LCY[Dab]E[dDab][Dab]W[Dab][Tle]CS-NH2 / II: [Dab]T[Dab][Dab][Dab][dL]L[Dab][Dab]T; disulfide I:2-I:11; amide I:5-II:N; lactam II:4-II:C) | 0.125 | 0.125 | 1 | 8 (≈ 3.24 µM) | 0.25 | 0.25 (≈ 0.101 µM) | 0.5 (≈ 0.203 µM) | 4 (≈ 1.62 µM) | <1
2 | CC(=O)N[C@@H](CC(C)C)C(=O)N[C@H]1CSSC[C@@H](C(=O)N[C@@H](CO)C(N)=O)NC(=O)[C@H](C(C)C)NC(=O)[C@H](CCN)NC(=O)[C@H](Cc2c[nH]c3ccccc23)NC(=O)[C@H](CCN)NC(=O)[C@@H](CCN)NC(=O)[C@H](CCC(=O)N[C@@H](CCN)C(=O)N[C@H](C(=O)N[C@@H](CN)C(=O)N[C@H]2CCNC(=O)[C@H]([C@@H](C)O)NC(=O)[C@H](CCN)NC(=O)[C@H](CCN)NC(=O)[C@H](CC(C)C)NC(=O)[C@@H](CC(C)C)NC(=O)[C@H](CCN)NC2=O)[C@@H](C)O)NC(=O)[C@H](CCN)NC(=O)[C@H](Cc2ccc(O)cc2)NC1=O [Ex. 353] (I: Ac-LCY[Dab]E[dDab][Dab]W[Dab]VCS-NH2 / II: [Dab]T[Dap][Dab][Dab][dL]L[Dab][Dab]T; disulfide I:2-I:11; amide I:5-II:N; lactam II:4-II:C) | 0.125 | 0.125 | 1 | 8 (≈ 3.28 µM) | 0.25 | 0.25 (≈ 0.103 µM) | 4 (≈ 1.64 µM) | 4 (≈ 1.64 µM) | <1
3 | CC(=O)N[C@H](C(=O)N[C@H]1CSSC[C@@H](C(=O)N[C@@H](CO)C(N)=O)NC(=O)[C@H](C(C)C)NC(=O)[C@H](CO)NC(=O)[C@H](Cc2c[nH]c3ccccc23)NC(=O)[C@H](CCC(=O)N[C@@H](CCN)C(=O)N[C@H](C(=O)N[C@@H](CN)C(=O)N[C@H]2CCNC(=O)[C@H]([C@@H](C)O)NC(=O)[C@H](CCN)NC(=O)[C@H](CCN)NC(=O)[C@H](CC(C)C)NC(=O)[C@@H](CC(C)C)NC(=O)[C@H](CCN)NC2=O)[C@@H](C)O)NC(=O)[C@@H](CCN)NC(=O)[C@H](CCCN)NC(=O)[C@H]([C@@H](C)O)NC(=O)[C@H](Cc2ccc(O)cc2)NC1=O)C(C)C [Ex. 355] (I: Ac-VCYT[Orn][dDab]EWSVCS-NH2 / II: [Dab]T[Dap][Dab][Dab][dL]L[Dab][Dab]T; disulfide I:2-I:11; amide I:7-II:N; lactam II:4-II:C) | 0.0625 | 0.03125 | 0.03125 | 0.125 (≈ 0.0515 µM) | 0.125 | 0.25 (≈ 0.103 µM) | 0.25 (≈ 0.103 µM) | 0.0625 (≈ 0.0258 µM) | 6

More lines, main results first:

Row | Klebsiella pneumoniae SSI #3010 MIC [1] [mg/L] | Escherichia coli ATCC 25922 MIC [2] [mg/L] | Acinetobacter baumannii DSM 30008 MIC [3] [mg/L] | MIC [4] [mg/L] | Pseudomonas aeruginosa ATCC 27853 MIC [5] [mg/L] | MIC [6] [mg/L] | MIC [7] [mg/L] | MIC [8] [mg/L] | Compound | Hemolysis at 200 μg/mL [9] [%]
4 | 0.0625 | 0.0625 | 0.125 | 0.5 (≈ 0.215 µM) | 0.125 | 0.25 (≈ 0.108 µM) | 1 (≈ 0.431 µM) | 0.25 (≈ 0.108 µM) | CC(C)C[C@@H]1NC(=O)[C@@H](CC(C)C)NC(=O)[C@H](CCN)NC(=O)[C@@H](NC(=O)[C@H](CN)NC(=O)[C@@H](NC(=O)[C@H](CCN)NC(=O)CC[C@@H]2NC(=O)[C@H](CCN)NC(=O)[C@H](Cc3ccc(O)cc3)NC(=O)[C@@H](NC(=O)[C@@H](O)C(C)C)CCNC(=O)C[C@@H](C(=O)N[C@@H](CO)C(N)=O)NC(=O)[C@H](C(C)C)NC(=O)[C@H](CO)NC(=O)[C@H](Cc3c[nH]c4ccccc34)NC(=O)CNC(=O)[C@@H](CCN)NC2=O)[C@@H](C)O)CCNC(=O)[C@H]([C@@H](C)O)NC(=O)[C@H](CCN)NC(=O)[C@H](CCN)NC1=O [Ex. 347] (I: H-[Hiv][Dab]Y[Dab]E[dDab]GWSVDS-NH2 / II: [Dab]T[Dap][Dab][Dab][dL]L[Dab][Dab]T; lactam I:2-I:11, II:4-II:C; amide I:5-II:N) | <1
5 | 0.0625 | 0.0625 | 0.125 | 0.5 (≈ 0.21 µM) | 0.125 | 0.5 (≈ 0.21 µM) | 2 (≈ 0.842 µM) | 0.5 (≈ 0.21 µM) | CC(=O)N[C@H](C(=O)N[C@H]1CCN(C)C(=O)C[C@@H](C(=O)N[C@@H](CO)C(N)=O)NC(=O)[C@H](C(C)C)NC(=O)[C@H](CO)NC(=O)[C@H](Cc2c[nH]c3ccccc23)NC(=O)CNC(=O)[C@@H](CCN)NC(=O)[C@H](CCC(=O)N[C@@H](CCN)C(=O)N[C@H](C(=O)N[C@@H](CN)C(=O)N[C@H]2CCNC(=O)[C@H]([C@@H](C)O)NC(=O)[C@H](CCN)NC(=O)[C@H](CCN)NC(=O)[C@H](CC(C)C)NC(=O)[C@@H](CC(C)C)NC(=O)[C@H](CCN)NC2=O)[C@@H](C)O)NC(=O)[C@H](CCN)NC(=O)[C@H](Cc2ccc(O)cc2)NC1=O)C(C)C [Ex. 348] | <1
6 | 0.125 | 0.0625 | 0.0625 | 0.25 (≈ 0.105 µM) | 0.125 | 0.25 (≈ 0.105 µM) | 0.25 (≈ 0.105 µM) | 0.25 (≈ 0.105 µM) | CC(=O)N[C@H](C(=O)N[C@H]1CCNC(=O)CC[C@@H](C(=O)N[C@@H](CO)C(N)=O)NC(=O)[C@H](C(C)C)NC(=O)[C@H](CO)NC(=O)[C@H](Cc2c[nH]c3ccccc23)NC(=O)CNC(=O)[C@@H](CCN)NC(=O)[C@H](CCC(=O)N[C@@H](CCN)C(=O)N[C@H](C(=O)N[C@@H](CN)C(=O)N[C@H]2CCNC(=O)[C@H]([C@@H](C)O)NC(=O)[C@H](CCN)NC(=O)[C@H](CCN)NC(=O)[C@H](CC(C)C)NC(=O)[C@@H](CC(C)C)NC(=O)[C@H](CCN)NC2=O)[C@@H](C)O)NC(=O)[C@H](CCN)NC(=O)[C@H](Cc2ccc(O)cc2)NC1=O)C(C)C [Ex. 349] (I: Ac-V[Dab]Y[Dab]E[dDab]GWSVES-NH2 / II: [Dab]T[Dap][Dab][Dab][dL]L[Dab][Dab]T; lactam I:2-I:11, II:4-II:C; amide I:5-II:N) | <1
7 | 0.0625 | 0.0625 | 0.03125 | 0.125 (≈ 0.0518 µM) | 0.125 | 0.5 (≈ 0.207 µM) | 0.25 (≈ 0.104 µM) | 0.0625 (≈ 0.0259 µM) | CC(=O)N[C@H](C(=O)N[C@H]1CSSC[C@@H](C(=O)N[C@@H](CO)C(N)=O)NC(=O)[C@H](C(C)C)NC(=O)[C@H](CO)NC(=O)[C@H](Cc2c[nH]c3ccccc23)NC(=O)[C@H](CCC(=O)N[C@@H](CCN)C(=O)N[C@H](C(=O)N[C@@H](CN)C(=O)N[C@H]2CCNC(=O)[C@H]([C@@H](C)O)NC(=O)[C@H](CCN)NC(=O)[C@H](CCN)NC(=O)[C@H](CC(C)C)NC(=O)[C@@H](CC(C)C)NC(=O)[C@H](CCN)NC2=O)[C@@H](C)O)NC(=O)[C@@H](CCN)NC(=O)[C@H](CCCN)NC(=O)[C@H](CO)NC(=O)[C@H](Cc2ccc(O)cc2)NC1=O)C(C)C [Ex. 354] (I: Ac-VCYS[Orn][dDab]EWSVCS-NH2 / II: [Dab]T[Dap][Dab][Dab][dL]L[Dab][Dab]T; disulfide I:2-I:11; amide I:7-II:N; lactam II:4-II:C) | 1
